The values that follow come from paper PMC11396062, “The n-Butanol Extract Obtained from the Inner Bark of Tabebuia rosea (Bertol.) DC, Specioside, and Catalposide Induce Leukemia Cell Apoptosis in the Presence of Apicidin” (Molecules, 2024).

Molecules are shown by their SMILES. ≈ marks a conversion by molar mass, not a printed value.

Assay [1] deals with BAX. The assay can be described thus: Western blot Bax protein. It is filed as cell-based, human. The settings on record: THP-1, catalposide 44 and 66 μg/mL, specioside 20, 40 and 60 μg/mL. As to the method: THP-1 cells were seeded in 24-well plates (5 × 10^5 cells/well), and after 24 h of incubation, they were pretreated with 1 µM apicidin for 24 h and then treated with different concentrations of the n-butanol extract, catalposide, and specioside for 24 h. After treatment, the cells were lysed with an Abcam protein extraction kit (ab270054), and a phosphatase inhibitor cocktail (ab201115) was added. The supernatants of the cell extracts were quantified with a BCA protein assay (Thermo Scientific Pierce #23227, Waltham, MA, USA). Equivalent amounts of protein were electrophoresed on 10% SDS polyacrylamide gels and then electroblotted onto 0.45 μm polyvinylidene difluoride (PVDF) membranes (GE Healthcare, Chicago, IL, USA). […] The signals were detected using SuperSignal™ West Pico PLUS Chemiluminescent Substrate (Thermo Scientific Pierce cat 34577) and analyzed with a ChemiDoc XRS+ system (Bio-Rad, Hercules, CA, USA). The density of each band was measured using ImageJ software V. 1.53n, 7 November 2021 (NIH, Bethesda, MD, USA), and the protein levels were normalized to the GAPDH levels. The data are expressed as the means of three independent experiments. […]
(In general: Immunoblotting shows a protein as a band on a membrane.)

For assay [2], the system named is Peripheral blood mononuclear cells (PBMCs). The experiment in a line: MTT cell viability assay, PBMC (normal cells). It is filed as cell-based. The settings on record: Homo sapiens, n = 3. As to the method:
Jurkat and THP-1 cell lines were purchased from the American Type Culture Collection (ATCC, Rockville, MD, USA); Jurkat is a human lymphocytic cell line representing acute T-cell leukemia, and THP-1 is a monocytic cell line that represents acute myelogenous leukemia (AML). Jurkat and THP-1 cells were maintained in RPMI 1640 medium (Sigma) supplemented with 10% heat-inactivated fetal bovine serum (FBS) (Gibco Cat No. 16140071, Waltham, MA USA), 200 μg/mL penicillin, 200 μg/mL streptomycin, 400 μg/mL neomycin (GIBCO, Cat No. 15640-055), 5 μg/mL amphotericin, and 1 mM sodium pyruvate (all from Sigma Chemical Co., Saint Louis, MO, USA; Cat Nos. A9528-50 MG, M7522-100ML, and S8636-100ML, respectively). The cells were maintained at 37 °C in a humidified atmosphere with 5% CO2. The culture medium was exchanged with fresh medium every 2–3 days. Peripheral blood mononuclear cells (PBMCs) were isolated from normal human venous blood. Further, 10 milliliters of human blood was mixed with 10 mL of RPMI-1640 containing 50 µL of heparin and gradually poured over 1 mL of HISTOPAQUE®-1119 (Sigma). The plasma was removed by centrifugation at 3000 rpm for 30 min. The peripheral blood mononuclear cell-containing layer was collected with a pipette and diluted in 4 mL of PBS. PBMCs were harvested by centrifugation at 1500 rpm for 10 min at room temperature, resuspended in RPMI-1640 with 10% FBS, and incubated at 37 °C in 5% CO2 humidified air.
Cell viability was determined by measuring the mitochondrial activity of live cells via the metabolism of the tetrazolium substrate 3-(4,5-dimethylthiazol-2-yl)-2,5-diphenyl tetrazolium bromide (MTT) and converting it to purple formazan crystals. Briefly, the cells (2 × 10^4 cells/well) were treated with 25, 50, 100, 200, or 400 μg/mL extract diluted in DMSO (at a final concentration of 0.5%) and incubated for 12, 24, or 48 h. Catalposide and specioside were tested at concentrations of 20, 50, and 100 μg/mL for 12, 24, and 48 h. For apicidin, 0.5, 1, and 2 μM apicidin were tested for 24 and 48 h. Doxorubicin was used as a reference standard drug (positive control). After treatment, the medium was discarded; 200 μL of RPMI 1640 medium without phenol red containing 0.5 mg/mL MTT (Sigma Chemical Co., Saint Louis, MO, USA; Cat. No. M2128-500MG) was then added to each well. The plates were incubated for four hours at 37 °C with 5% CO2 in a humidified atmosphere. The medium was discarded, and 100 μL of DMSO was added to solubilize the formazan crystals. The absorbance was measured with an ELISA microplate reader at 492 nm (ELx800; BioTek Instruments Inc., Winooski, VT, USA). The percentage of viable cells was calculated on the basis of the nontreated control (taken as 100%). The IC50 (concentration causing a 50% reduction in cellular viability) values for all the tested compounds were evaluated in Excel using the nonlinear regression curve method. Three independent assays were performed, each in triplicate.

Assay [3] concerns THP-1 cells. The experiment in a line: Cell cycle analysis by flow cytometry. The class given is cell-based, human. The settings on record: THP-1 (Figure S6). As to the method:
After treatment with the extract, 7 × 10^4 cells were harvested, washed with PBS, fixed with 200 µL of ice-cold 70% ethanol, and maintained at 4 °C for 4 h before staining. The cell pellet was washed in 1X PBS, resuspended in 200 µL of Guava Cell Cycle reagent (#4500-0220, Millipore), and incubated in the dark at 37 °C for 30 min before analysis with a Guava flow cytometer (Merck Millipore, Bedford, MA, USA) using InCyte software (version 3.1, Merck Millipore).. Centrifugation was performed at 1200 rpm for 5 min at room temperature for each step.
Background: A flow cytometer gives signals particle by particle.

The subject of assay [4] is THP-1 cells. The assay can be described thus: Flow cytometric apoptosis, Annexin V-CF647/7-AAD. The settings on record: THP-1, 24 h (Figure S5). The class given is cell-based, human. As to the method:
In 96-well plates, 8 × 10^4 cells were treated with 25, 50, and 100 µg/mL extract and 400 µM doxorubicin (positive control) for 24 and 48 h. The cells were washed with 1X PBS, and apoptotic cells were detected by staining with 100 µL of Annexin V-CF647 and 5 µL of the 7-AAD Apoptosis Annexin Red Kit (FCCH100108 FlowCellect, Millipore, Darmstadt, Germany). The cells were incubated at room temperature for 15 min in the dark and analyzed on a Guava Millipore flow cytometer (Merck Millipore, Bedford, MA, USA) using InCyte software (version 3.1, Merck Millipore). The percentage of annexin V-positive cells was evaluated.

With `O=C(O[C@H]1[C@@H]2C=CO[C@@H](O[C@@H]3O[C@H](CO)[C@@H](O)[C@H](O)[C@H]3O)[C@@H]2[C@@]2(CO)O[C@@H]12)c1ccc(O)cc1` [Catalposide, catalposide], in assay [1], the “expression of Bax protein with APC pretreatment” value was “increased”. Also, the IC50 (usually the concentration needed to halve the response being measured) in assay [2] (12 h) amounted to 126 ± 2.8 mg/L (≈ 260 µM); in assay [2] (24 h) it was 87.7 ± 3.1 mg/L (≈ 182 µM); in assay [2] (48 h), 43.4 ± 3.4 mg/L (≈ 90 µM). Moreover, the “percentage of cells in the G0/G1 phase compared with control” value in assay [3] is given as “the increase was significant”. Moreover, the “apoptosis compared with control” value in assay [4] is “increased apoptosis”.

Regarding `O=C(/C=C/c1ccc(O)cc1)O[C@H]1[C@@H]2C=CO[C@@H](O[C@@H]3O[C@H](CO)[C@@H](O)[C@H](O)[C@H]3O)[C@@H]2[C@@]2(CO)O[C@@H]12` [Specioside], the “expression of Bax protein with APC pretreatment” value in assay [1] is reported as “increased”. For the same compound, the IC50 in assay [2] (12 h) worked out at 165 ± 3.1 mg/L (≈ 325 µM); in assay [2] (24 h), 70.7 ± 3.7 mg/L (≈ 139 µM); in assay [2] (48 h), 54.2 ± 3.7 mg/L (≈ 107 µM). Moreover, the “percentage of cells in the G0/G1 phase compared with control” value in assay [3] is on record as “the increase was significant”. The “apoptosis compared with control” value in assay [4] was “increased apoptosis”.
